ChEMBL document CHEMBL1821607, “N-Arylalkyl-2-azaadamantanes as cage-expanded polycarbocyclic sigma (σ) receptor ligands” (Bioorg Med Chem Lett, 2011)

Columns and labels:
[1] = Inhibition of GABAA receptor at 10 uM by NIMH PDSP
[2] = biological target: T1, Kappa-type opioid receptor (Homo sapiens, UniProt P41145); experiment: Inhibition of kappa opioid receptor by NIMH PDSP
[3] = biological target: D(1B) dopamine receptor (Homo sapiens) (UniProt P21918); experiment: Inhibition of D5 dopamine receptor at 10 uM by NIMH PDSP
Sequence of D(1B) dopamine receptor (Homo sapiens) (P21918 whole entry): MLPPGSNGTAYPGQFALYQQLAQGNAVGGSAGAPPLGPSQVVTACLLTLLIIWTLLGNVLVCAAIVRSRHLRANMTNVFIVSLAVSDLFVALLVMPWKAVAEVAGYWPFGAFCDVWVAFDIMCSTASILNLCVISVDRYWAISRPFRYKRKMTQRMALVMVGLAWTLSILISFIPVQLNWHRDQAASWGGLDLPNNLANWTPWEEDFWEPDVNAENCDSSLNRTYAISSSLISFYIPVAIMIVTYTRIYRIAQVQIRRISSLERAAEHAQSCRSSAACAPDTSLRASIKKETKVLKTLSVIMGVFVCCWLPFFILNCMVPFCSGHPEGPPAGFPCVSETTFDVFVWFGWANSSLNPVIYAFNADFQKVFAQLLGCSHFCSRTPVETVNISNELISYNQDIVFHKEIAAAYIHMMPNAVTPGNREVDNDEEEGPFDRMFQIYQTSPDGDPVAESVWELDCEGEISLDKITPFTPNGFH

[4] = biological target: D(3) dopamine receptor (Homo sapiens) (UniProt P35462); experiment: Inhibition of D3 dopamine receptor at 10 uM by NIMH PDSP
Sequence of D(3) dopamine receptor (Homo sapiens) (P35462 whole entry): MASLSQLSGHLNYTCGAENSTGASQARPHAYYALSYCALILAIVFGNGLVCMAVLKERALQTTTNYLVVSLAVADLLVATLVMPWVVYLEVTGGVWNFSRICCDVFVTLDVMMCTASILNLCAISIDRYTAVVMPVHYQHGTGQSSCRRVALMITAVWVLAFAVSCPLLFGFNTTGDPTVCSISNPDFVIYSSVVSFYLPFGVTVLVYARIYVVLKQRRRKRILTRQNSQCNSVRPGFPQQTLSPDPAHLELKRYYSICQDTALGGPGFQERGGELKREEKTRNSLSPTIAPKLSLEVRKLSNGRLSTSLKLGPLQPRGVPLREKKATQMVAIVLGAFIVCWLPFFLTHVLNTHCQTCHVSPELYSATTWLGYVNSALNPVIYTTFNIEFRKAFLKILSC

[5] = Displacement of [3H]DTG from sigma 2 receptor in rat liver homogenates in presence of sigma-1 receptor blocker (+)-pentazocine after 120 mins by liquid scintillation counting; assay type: tissue-based
[6] = biological target: 5-hydroxytryptamine receptor 7 (Homo sapiens) (UniProt P34969); experiment: Inhibition of 5-HT7 receptor at 10 uM by NIMH PDSP
Sequence of 5-hydroxytryptamine receptor 7 (Homo sapiens) (P34969 whole entry): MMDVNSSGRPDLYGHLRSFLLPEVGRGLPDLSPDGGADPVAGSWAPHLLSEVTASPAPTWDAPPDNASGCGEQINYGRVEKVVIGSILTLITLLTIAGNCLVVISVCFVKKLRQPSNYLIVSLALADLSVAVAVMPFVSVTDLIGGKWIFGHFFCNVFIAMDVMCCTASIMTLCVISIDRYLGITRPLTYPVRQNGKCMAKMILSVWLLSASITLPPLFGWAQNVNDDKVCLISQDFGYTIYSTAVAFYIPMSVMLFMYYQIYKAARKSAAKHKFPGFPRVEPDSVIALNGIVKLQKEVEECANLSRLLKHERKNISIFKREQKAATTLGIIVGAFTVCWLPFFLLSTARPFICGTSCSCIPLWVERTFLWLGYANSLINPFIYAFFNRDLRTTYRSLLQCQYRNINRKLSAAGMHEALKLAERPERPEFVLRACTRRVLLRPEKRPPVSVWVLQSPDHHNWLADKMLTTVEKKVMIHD

[7] = biological target: T2, 5-hydroxytryptamine receptor 3A (Homo sapiens) (UniProt P46098); experiment: Inhibition of 5-HT3 receptor at 10 uM by NIMH PDSP
T2 sequence (whole entry): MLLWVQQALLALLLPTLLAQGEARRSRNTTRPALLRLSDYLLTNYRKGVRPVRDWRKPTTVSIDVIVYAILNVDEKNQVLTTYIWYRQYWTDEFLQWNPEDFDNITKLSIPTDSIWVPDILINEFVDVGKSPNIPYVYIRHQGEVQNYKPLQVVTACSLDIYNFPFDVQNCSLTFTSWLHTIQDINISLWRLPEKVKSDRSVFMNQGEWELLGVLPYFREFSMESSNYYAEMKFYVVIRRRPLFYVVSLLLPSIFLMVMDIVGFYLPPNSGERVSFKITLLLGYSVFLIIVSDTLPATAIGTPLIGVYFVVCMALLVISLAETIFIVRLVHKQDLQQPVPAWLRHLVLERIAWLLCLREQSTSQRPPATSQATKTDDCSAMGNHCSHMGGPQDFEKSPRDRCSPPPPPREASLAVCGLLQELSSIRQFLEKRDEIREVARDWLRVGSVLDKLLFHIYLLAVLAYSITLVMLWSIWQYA

[8] = biological target: Muscarinic acetylcholine receptor M2 (Homo sapiens) (UniProt P08172); experiment: Inhibition of M2 muscarinic receptor at 10 uM by NIMH PDSP
[9] = biological target: Beta-1 adrenergic receptor (Homo sapiens) (UniProt P08588); experiment: Inhibition of beta-1 adrenergic receptor at 10 uM by NIMH PDSP
Sequence of Beta-1 adrenergic receptor (Homo sapiens) (P08588 whole entry, looked up): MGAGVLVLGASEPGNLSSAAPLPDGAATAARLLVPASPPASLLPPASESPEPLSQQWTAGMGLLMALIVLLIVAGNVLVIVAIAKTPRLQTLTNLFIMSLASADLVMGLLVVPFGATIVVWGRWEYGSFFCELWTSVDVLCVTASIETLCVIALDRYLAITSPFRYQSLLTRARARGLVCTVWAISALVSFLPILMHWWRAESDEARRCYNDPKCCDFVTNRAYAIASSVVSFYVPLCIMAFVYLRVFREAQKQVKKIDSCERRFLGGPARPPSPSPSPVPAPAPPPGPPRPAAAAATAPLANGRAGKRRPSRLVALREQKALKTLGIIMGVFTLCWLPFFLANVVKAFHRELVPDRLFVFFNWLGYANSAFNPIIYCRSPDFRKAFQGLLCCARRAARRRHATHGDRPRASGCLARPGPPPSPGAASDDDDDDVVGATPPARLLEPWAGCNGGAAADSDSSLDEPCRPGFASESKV

[10] = biological target: Beta-3 adrenergic receptor (Homo sapiens) (UniProt P13945); experiment: Inhibition of beta-3 adrenergic receptor at 10 uM by NIMH PDSP
Sequence of Beta-3 adrenergic receptor (Homo sapiens) (P13945 whole entry, looked up): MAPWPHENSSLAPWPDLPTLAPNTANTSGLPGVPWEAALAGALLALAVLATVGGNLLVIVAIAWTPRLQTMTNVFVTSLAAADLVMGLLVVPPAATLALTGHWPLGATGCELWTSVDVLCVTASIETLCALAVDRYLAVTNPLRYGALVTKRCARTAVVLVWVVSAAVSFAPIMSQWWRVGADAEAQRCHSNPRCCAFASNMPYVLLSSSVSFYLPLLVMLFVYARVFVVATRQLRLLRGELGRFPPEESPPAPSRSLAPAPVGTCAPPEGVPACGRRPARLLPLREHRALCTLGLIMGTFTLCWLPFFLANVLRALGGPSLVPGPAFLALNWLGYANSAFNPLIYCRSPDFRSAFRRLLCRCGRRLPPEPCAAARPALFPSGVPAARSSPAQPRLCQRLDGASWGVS

Rattus norvegicus = species on record: Rattus norvegicus; experiment: Inhibition of BZP receptor in rat brain at 10 uM by NIMH PDSP; assay type: tissue-based
[11] = biological target: T3, D(4) dopamine receptor (Homo sapiens) (UniProt P21917); experiment: Inhibition of D4 dopamine receptor at 10 uM by NIMH PDSP
T3 sequence (whole entry): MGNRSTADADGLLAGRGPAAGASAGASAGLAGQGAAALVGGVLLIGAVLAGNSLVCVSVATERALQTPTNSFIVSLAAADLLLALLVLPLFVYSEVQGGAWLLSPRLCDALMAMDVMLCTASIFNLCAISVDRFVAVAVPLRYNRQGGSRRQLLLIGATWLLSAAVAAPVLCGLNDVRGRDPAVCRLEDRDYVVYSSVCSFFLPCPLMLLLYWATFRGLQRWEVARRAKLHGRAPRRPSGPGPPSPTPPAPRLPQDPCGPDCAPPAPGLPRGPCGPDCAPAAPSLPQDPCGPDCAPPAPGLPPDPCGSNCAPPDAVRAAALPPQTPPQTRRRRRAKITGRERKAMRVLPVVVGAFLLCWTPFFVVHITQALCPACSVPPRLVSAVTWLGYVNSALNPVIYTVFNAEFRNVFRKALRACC

[12] = biological target: Sigma non-opioid intracellular receptor 1 (Cavia porcellus, UniProt Q60492); experiment: Displacement of [3H](+)-pentazocine from sigma 1 receptor in guinea pig brain homogenates after 90 mins by scintillation counting; assay type: tissue-based
Sequence of Sigma non-opioid intracellular receptor 1 (Q60492 whole entry): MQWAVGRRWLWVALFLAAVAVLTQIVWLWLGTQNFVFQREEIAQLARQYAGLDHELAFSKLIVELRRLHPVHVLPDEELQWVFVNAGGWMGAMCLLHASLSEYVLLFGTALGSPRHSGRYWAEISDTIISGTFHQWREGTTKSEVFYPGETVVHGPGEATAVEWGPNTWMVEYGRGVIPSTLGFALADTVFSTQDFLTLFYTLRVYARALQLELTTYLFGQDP

[13] = biological target: Muscarinic acetylcholine receptor M4 (Homo sapiens) (UniProt P08173); experiment: Inhibition of M4 muscarinic receptor at 10 uM by NIMH PDSP
Sequence of Muscarinic acetylcholine receptor M4 (Homo sapiens) (P08173 whole entry): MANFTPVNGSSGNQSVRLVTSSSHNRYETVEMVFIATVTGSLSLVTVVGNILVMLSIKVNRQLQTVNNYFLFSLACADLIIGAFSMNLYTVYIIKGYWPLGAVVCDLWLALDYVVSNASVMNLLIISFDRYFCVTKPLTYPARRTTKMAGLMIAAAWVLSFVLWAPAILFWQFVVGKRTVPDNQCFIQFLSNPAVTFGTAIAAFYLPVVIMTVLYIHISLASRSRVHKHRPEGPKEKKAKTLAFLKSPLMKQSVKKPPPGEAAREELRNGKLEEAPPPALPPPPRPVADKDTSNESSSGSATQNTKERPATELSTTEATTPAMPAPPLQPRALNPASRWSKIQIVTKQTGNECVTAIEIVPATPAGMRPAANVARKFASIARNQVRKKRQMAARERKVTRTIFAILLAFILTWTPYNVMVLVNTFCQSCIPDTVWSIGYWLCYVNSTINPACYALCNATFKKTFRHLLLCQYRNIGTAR

[14] = Selectivity ratio of Ki for sigma 1 receptor in guinea pig brain to Ki for sigma 2 receptor in rat liver
[15] = biological target: 5-hydroxytryptamine receptor 2A (Homo sapiens) (UniProt P28223); experiment: Inhibition of 5-HT2A receptor at 10 uM by NIMH PDSP
Sequence of 5-hydroxytryptamine receptor 2A (Homo sapiens) (P28223 whole entry): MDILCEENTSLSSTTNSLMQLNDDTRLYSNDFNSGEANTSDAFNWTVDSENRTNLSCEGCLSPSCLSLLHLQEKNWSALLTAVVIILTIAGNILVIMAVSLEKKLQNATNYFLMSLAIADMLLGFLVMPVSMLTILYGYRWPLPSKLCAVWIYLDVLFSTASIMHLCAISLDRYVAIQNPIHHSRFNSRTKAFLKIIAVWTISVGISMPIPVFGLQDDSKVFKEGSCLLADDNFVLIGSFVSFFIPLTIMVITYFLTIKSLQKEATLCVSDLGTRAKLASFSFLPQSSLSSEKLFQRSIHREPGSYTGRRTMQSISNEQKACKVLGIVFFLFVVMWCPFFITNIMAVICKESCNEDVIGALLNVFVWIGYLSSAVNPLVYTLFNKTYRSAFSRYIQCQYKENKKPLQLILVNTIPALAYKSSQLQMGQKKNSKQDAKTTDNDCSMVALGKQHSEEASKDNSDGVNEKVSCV

[16] = biological target: Muscarinic acetylcholine receptor M5 (Homo sapiens) (UniProt P08912); experiment: Inhibition of M5 muscarinic receptor at 10 uM by NIMH PDSP
[17] = biological target: T4, Alpha-2C adrenergic receptor (Homo sapiens) (UniProt P18825); experiment: Inhibition of alpha-2C adrenergic receptor at 10 uM by NIMH PDSP
T4 sequence (whole entry): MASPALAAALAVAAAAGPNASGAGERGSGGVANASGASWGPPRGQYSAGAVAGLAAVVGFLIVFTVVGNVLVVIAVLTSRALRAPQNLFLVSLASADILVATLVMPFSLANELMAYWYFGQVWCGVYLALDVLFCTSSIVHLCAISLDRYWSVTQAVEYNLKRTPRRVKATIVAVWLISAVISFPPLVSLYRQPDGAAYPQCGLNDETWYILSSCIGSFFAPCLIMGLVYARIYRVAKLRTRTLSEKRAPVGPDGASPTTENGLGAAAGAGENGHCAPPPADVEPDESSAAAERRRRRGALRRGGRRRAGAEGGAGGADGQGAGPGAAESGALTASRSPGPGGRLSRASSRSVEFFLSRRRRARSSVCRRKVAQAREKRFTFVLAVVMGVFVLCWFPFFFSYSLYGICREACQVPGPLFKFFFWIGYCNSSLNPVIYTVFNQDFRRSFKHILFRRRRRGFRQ

[18] = biological target: Delta-type opioid receptor (Homo sapiens) (UniProt P41143); experiment: Inhibition of delta opioid receptor at 10 uM by NIMH PDSP
Sequence of Delta-type opioid receptor (Homo sapiens) (P41143 whole entry): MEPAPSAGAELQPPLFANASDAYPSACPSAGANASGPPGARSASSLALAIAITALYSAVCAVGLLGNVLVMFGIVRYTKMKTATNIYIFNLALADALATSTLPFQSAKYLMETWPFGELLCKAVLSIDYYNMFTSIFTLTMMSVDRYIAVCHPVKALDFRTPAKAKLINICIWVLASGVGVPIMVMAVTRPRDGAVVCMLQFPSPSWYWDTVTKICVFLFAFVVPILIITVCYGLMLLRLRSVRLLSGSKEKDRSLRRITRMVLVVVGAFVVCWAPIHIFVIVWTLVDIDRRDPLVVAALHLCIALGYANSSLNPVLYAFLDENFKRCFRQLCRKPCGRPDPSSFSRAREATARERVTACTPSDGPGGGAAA

[19] = biological target: Muscarinic acetylcholine receptor M4 (Homo sapiens, UniProt P08173); experiment: Inhibition of M4 muscarinic receptor by NIMH PDSP
Sequence of Muscarinic acetylcholine receptor M4 (P08173 whole entry): as the sequence (P08173 whole entry) above

[20] = biological target: Sodium-dependent dopamine transporter (Homo sapiens) (UniProt Q01959); experiment: Inhibition of DAT transporter at 10 uM by NIMH PDSP
Sequence of Sodium-dependent dopamine transporter (Homo sapiens) (Q01959 whole entry): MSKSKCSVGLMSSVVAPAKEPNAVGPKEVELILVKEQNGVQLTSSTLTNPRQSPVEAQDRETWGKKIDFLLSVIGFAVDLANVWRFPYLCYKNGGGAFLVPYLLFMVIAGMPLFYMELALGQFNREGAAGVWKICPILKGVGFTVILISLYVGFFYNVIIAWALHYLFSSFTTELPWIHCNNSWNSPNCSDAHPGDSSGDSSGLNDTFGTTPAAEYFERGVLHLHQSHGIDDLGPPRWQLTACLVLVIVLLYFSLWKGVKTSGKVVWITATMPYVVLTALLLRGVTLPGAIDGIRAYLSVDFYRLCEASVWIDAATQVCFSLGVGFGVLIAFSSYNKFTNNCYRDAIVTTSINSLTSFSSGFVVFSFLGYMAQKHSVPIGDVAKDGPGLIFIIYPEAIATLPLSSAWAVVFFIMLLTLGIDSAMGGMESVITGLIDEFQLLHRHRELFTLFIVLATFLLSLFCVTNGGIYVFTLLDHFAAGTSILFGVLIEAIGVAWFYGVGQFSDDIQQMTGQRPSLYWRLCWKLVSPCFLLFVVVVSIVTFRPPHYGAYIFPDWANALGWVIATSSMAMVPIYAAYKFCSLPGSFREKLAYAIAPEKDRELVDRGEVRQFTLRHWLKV

[21] = biological target: Alpha-1A adrenergic receptor (Homo sapiens, UniProt P35348); experiment: Inhibition of alpha-1A adrenergic receptor by NIMH PDSP
[22] = biological target: Muscarinic acetylcholine receptor M5 (Homo sapiens, UniProt P08912); experiment: Inhibition of M5 muscarinic receptor by NIMH PDSP
[23] = biological target: T1, Kappa-type opioid receptor; experiment: Inhibition of kappa opioid receptor at 10 uM by NIMH PDSP
[24] = biological target: Muscarinic acetylcholine receptor M2 (Homo sapiens, UniProt P08172); experiment: Inhibition of M2 muscarinic receptor by NIMH PDSP
[25] = Selectivity ratio of Ki for sigma 2 receptor in rat liver to Ki for sigma 1 receptor in guinea pig brain

T1 sequence (P41145 whole entry): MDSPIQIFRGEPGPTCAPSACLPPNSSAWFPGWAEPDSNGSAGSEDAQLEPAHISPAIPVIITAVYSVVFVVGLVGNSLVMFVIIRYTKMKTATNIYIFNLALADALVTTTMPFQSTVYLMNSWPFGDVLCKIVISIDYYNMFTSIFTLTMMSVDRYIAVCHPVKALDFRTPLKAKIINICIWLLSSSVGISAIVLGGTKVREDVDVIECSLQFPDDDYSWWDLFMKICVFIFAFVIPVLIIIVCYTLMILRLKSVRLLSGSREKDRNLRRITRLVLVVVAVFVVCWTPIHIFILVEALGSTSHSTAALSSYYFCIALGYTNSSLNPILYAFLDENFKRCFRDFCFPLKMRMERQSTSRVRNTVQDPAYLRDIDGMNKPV

SMILES | inhibition [1] [%] | Ki [2] [nM] | inhibition [3] [%] | inhibition [4] [%] | Ki [5] [nM] | inhibition [6] [%] | inhibition [7] [%] | inhibition [8] [%] | inhibition [9] [%] | inhibition [10] [%] | inhibition (Rattus norvegicus) [%] | inhibition [11] [%] | Ki [12] [nM] | inhibition [13] [%] | Ratio Ki [14] | inhibition [15] [%] | inhibition [16] [%] | inhibition [17] [%] | inhibition [18] [%] | Ki [19] [nM] | further results
OC12CC3CC(CC(C3)N1Cc1cccc(F)c1)C2 (racemic) | < 50 | 1200 | < 50 | < 50 | 705 | < 50 | < 50 | < 50 | < 50 | < 50 | < 50 | < 50 | 862 | < 50 | 1.2 | < 50 | < 50 | < 50 | < 50 |  | 
OC12CC3CC(CC(C3)N1Cc1ccccc1)C2 (racemic) | < 50 | 662 | < 50 | < 50 | 1020 | < 50 | < 50 | < 50 | < 50 | < 50 | < 50 | < 50 | 1450 | < 50 | 1.4 | < 50 | < 50 | < 50 | < 50 |  | 
Fc1cccc(CN2C3CC4CC(C3)CC2C4)c1 | < 50 |  | < 50 | < 50 | 132 | < 50 | < 50 |  | < 50 | < 50 | < 50 | < 50 | 22 |  |  | < 50 |  | < 50 | < 50 | 1360 | inhibition [20]: < 50%; Ki [21]: > 10000 nM; Ki [22]: 5480 nM; inhibition [23]: < 50%; Ki [24]: 3540 nM; Ratio Ki [25]: 6
c1ccc(CN2C3CC4CC(C3)CC2C4)cc1 | < 50 |  | < 50 | < 50 | 95 | < 50 | < 50 |  | < 50 | < 50 | < 50 | < 50 | 29 |  |  | < 50 |  | < 50 | < 50 | 1780 | inhibition [20]: < 50%; Ki [22]: 6550 nM; inhibition [23]: < 50%; Ki [24]: 4300 nM; Ratio Ki [25]: 3.3
